Reference: article PMC7560626, “Active site competition is the mechanism for the inhibition of lipoprotein-associated phospholipase A2 by detergent micelles or lipoproteins and for the efficacy reduction of darapladib” (Scientific Reports, 2020)
Read-outs that look alike come from different tables or passages of the source.

Key:
Lp-PLA2 [1] = molecular target: T1, Lp-PLA2 (Homo sapiens, UniProt Q13093); test: Kinetics of hydrolysis of 14:0 NPS-PC by recombinant Lp-PLA2; type: biochemical
T1 sequence (Q13093 22-441): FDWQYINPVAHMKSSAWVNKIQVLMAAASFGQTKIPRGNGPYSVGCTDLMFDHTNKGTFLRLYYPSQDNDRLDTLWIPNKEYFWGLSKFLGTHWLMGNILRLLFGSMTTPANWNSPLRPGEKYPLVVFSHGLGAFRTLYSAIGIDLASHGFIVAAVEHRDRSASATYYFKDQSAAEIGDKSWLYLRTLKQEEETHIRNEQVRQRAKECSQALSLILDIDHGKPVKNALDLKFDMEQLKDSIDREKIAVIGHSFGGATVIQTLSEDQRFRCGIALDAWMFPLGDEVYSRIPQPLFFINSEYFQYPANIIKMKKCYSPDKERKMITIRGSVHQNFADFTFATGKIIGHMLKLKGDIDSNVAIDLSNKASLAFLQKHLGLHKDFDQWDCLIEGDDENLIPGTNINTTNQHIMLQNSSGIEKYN
Protocol: (a) Fitting of kinetic model for hydrolysis of 14:0 NPS-PC in the absence and presence of 10 mM CHAPS. […] Details are in Experiment Procedures. (c) Determination of CMC for 14:0 NPS-PC and CHAPS by anisotropy of polarized fluorescence using fluorescein as probe. Details are in Experiment Procedures.
Lp-PLA2 activity was assayed under different conditions and different methods were used. […] Purified recombinant Lp-PLA2 in storage buffer was diluted into TBS or PBS, pH 7.4–7.6, at the concentration of 1 µg/ml and 20 µl of the solution were used for each reaction. […] Generally, hydrolysis of 14:0 NPS-PC was monitored at 405 nm for 5 min under ambient temperature for all kinetic assays. […] Lp-PLA2 kinetic assays were performed in the same assay buffer with 14:0 NPS-PC concentrations as indicated. Assays were carried out in 96-well plates using a SpectraMax m2e plate reader. Hydrolysis of 14:0 NPS-PC was monitored at 405 nm for 5 min under ambient temperature. Serum Lp-PLA2 activity and mass concentration were measured by using PLAC activity and mass test kits (diaDexus) following the manufacturer's instruction. PLAC mass measurements were performed by manual ELISA and PLAC activity measurements were carried out by the Beckman Coulter AU400 analyzer as described in a previous publication. Twenty or forty μl of the fractionated sample per tube were used, depending on the Lp-PLA2 concentration of the samples. Ten mM CHAPS-modified PLAC ELISA test kits were made by adding solid CHAPS to the assay buffer to the final concentration of 10 mM. The assays follow the same instructions as the unmodified PLAC mass test kits. Other Lp-PLA2 activity assays are as indicated in figures or other experimental sections.

[2] = CMC by polarized fluorescence anisotropy with fluorescein as probe; type: physicochemical; settings: TBS, pH 7.4
Protocol: CMC of CHAPS and 14:0 NPS-PC were determined by polarized fluorescence anisotropy based on the method by Thorsteinsson et al.[21] with modification in a Varian Cary Eclipse fluorescence spectrophotometer using fluorescein as probe. Fluorescein was dissolved in TBS, pH 7.4, at final concentration of 0.1 µM. Solid CHAPS (control) or 14:0 NPS-PC was dissolved in TBS-fluorescein solution at concentrations indicated in figure and subjected to serial dilution in the same buffer. All fleshly prepared solutions were measured for fluorescence emission at 520 nm (excited at 490 nm) and compared the emission optics for the horizontal orientation to the vertical orientation. The anisotropy ratio of fluorescence intensities was plotted against the concentration incrementation of CHAPS or 14:0 NPS-PC. The anisotropy ratio was calculated as the followings. Anisotropyratior=IVV-G×IVH÷IVV+2×G×IVH where IVV indicates the intensity with vertically polarized excitation and vertical polarization on the detected emission. IVH indicates the intensity when using a vertical polarizer on the excitation and horizontal polarizer on the emission. G is a grating factor used as a correction for the instrument’s differential transmission of the two orthogonal vector orientations.

[3] = Distribution in bulk phase, detergent micelles and lipoproteins by SEC (TSKgel G3000SWXL); type: physicochemical
Protocol: Figure 8 Distribution of 14:0 NPS-PC and darapladib under different conditions. Assay methods are described in Experimental Procedures. (a) Distribution of 14:0 NPS-PC in TBS, pH 7.4, with and without detergents. Twenty µl of 14:0 NPS-PC at 10 µM were resolved by a TSKgel G3000SWXL column in TBS, pH 7.4, containing no detergent, 10 mM CHAPS or 60 µM Tween-20. Absorbance at 260 nm were monitored for 14:0 NPS-PC. Bulk phase is after fraction number 17 or after elution time 17 min. (b) Distribution of darapladib in TBS, pH 7.4, with and without detergents. Forty µl of darapladib in mobile phase buffer at 0.2 µM were resolved by a TSKgel G3000SWXL column in TBS, pH 7.4, containing no detergent, 10 mM CHAPS or 600 µM Tween-20. Relative darapladib concentration in each fraction was shown by inhibition of spiked Lp-PLA2. (c) Distribution of darapladib in TBS, pH 7.4, containing HDL or LDL. Forty µl of 1 mg/ml HDL or LDL with or without 0.2 µM darapladib were resolved by a TSKgel G3000SWXL column in TBS, pH 7.4. Relative darapladib concentration in each fraction was quantitated by inhibition of spiked Lp-PLA2. (d) Distribution of darapladib in human serum. Forty µl of neat human serum with or without 150 µM darapladib under the conditions as indicated were resolved by a TSKgel G3000SWXL column in TBS, pH 7.4. Relative darapladib concentration in each fraction was determined by inhibition of spiked Lp-PLA2.
Fractionation chromatography was carried out on an Akta10 or Akta100 by using a 10 mm × 300 mm Sperose-6 column at ambient temperature with the flow rate of 0.3 ml per minute. Fifty to two hundred µl of serum samples were injected per run depending on the Lp-PLA2 concentrations of the samples after the column was equilibrated with the running buffer (PBS, pH 7.2). Fraction collection was started at 21 min after sample injection and the collection volume was 0.6 ml/tube. Distribution of 14:0 NPS-PC and darapladib were carried out by separation of 20 – 40 µl of samples on a TSKgel G3000SWXL (7.8 mm × 30 cm, 5 µm) in TBS, pH 7.4, with and without detergents using a HPLC at flow rate of 0.8 ml/min. Fractions were collected at 1 min per tube starting at 6 min and ending at 21 min. Signal of 14:0 NPS-PC was detected by monitoring at 260 nm. Darapladib were assayed based on its inhibition of Lp-PLA2 activity. To one hundred µl of fraction, 10 µl of Lp-PLA2 at the concentration of approximately 0.5 µg/ml were added and the mixture was incubated at ambient temperature for 30 min with shaking. Reaction was started by adding 50 µl of mixture of CHAPS, SNS (sodium 1-nonane sulfonate) and 14:0 NPS-PC in buffer of 150 mM HEPES, pH 7.5, containing 12 mM EDTA. The final concentrations of CHAPS, SNS and 14:0 NPS-PC were 5 mM, 10 mM and 50 µM respectively. The hydrolysis reaction was monitored at 405 nm for 5 min. Fractions were also assayed for residual Lp-PLA2 activity by mixing in 100 µl fraction with 50 µl buffer of 150 mM HEPES, pH 7.5, containing 30 mM SNS, 30 mM CHAPS, 12 mM EDTA and 1.6 mM 14:0 NPS-PC.

Lp-PLA2 [4] = tested on: Lp-PLA2; design: method as in PMID 25173516, PMID 24678955; settings: 160 mg daily for 12 weeks; cited from earlier work
[5] = in Fig. 1a; source not stated; cited from earlier work

Compound: CCCCCCCCCCCCCC(=O)OC[C@H](COP(=O)([O-])OCC[N+](C)(C)C)OC(=O)CCC(=O)Oc1ccc([N+](=O)[O-])cc1 [14:0 NPS-PC, 1-myristoyl-2-(4-nitrophenylsuccinyl)-sn-glycero-3-phosphocholine]
- Hill slope of the substrate titration curve (Lp-PLA2 [1]; absence of 10 mM CHAPS): approximately 2.0
- Hill slope of the substrate titration curve (Lp-PLA2 [1]; presence of 10 mM CHAPS): approximately 1.0
- Km (Lp-PLA2 [1]; with 10 mM CHAPS): 238 ± 11.7 µM
- Vmax (Lp-PLA2 [1]; with 10 mM CHAPS): 187 ± 2 nmol/min/mL
- Km (Lp-PLA2 [1]; without CHAPS): 187 ± 18.5 µM
- Vmax (Lp-PLA2 [1]; without CHAPS): 191 ± 5 nmol/min/mL
- CMC [2]: 0.5 to 1 mM
- form in bulk phase ([3]; 10 µM in TBS pH 7.4, absence of detergents): existed only as monomer
- monomeric fraction detected in bulk ([3]; 10 µM in TBS pH 7.4 in presence of detergents): Less than 5%
- fraction in mixed micelles ([3]; 10 µM in TBS pH 7.4 with 10 mM CHAPS or 60 µM Tween-20): > 95%

Compound: CCN(CC)CCN(Cc1ccc(-c2ccc(C(F)(F)F)cc2)cc1)C(=O)Cn1c(SCc2ccc(F)cc2)nc(=O)c2c1CCC2 [darapladib]
- detection in TBS buffer (solubility) ([3]; 0.2 µM in TBS pH 7.4, absence of detergents): not detectable
- solubilization by detergents ([3]; 0.2 µM in TBS pH 7.4 with 10 mM CHAPS or 0.6 mM Tween-20): solubilized
- reduction of Lp-PLA2 activity (Lp-PLA2 [4]): approximately 66%

Compound: C[C@@H]1CC[C@@]2(OC1)O[C@H]1[C@@H](O)[C@H]3[C@@H]4CC[C@H]5C[C@@H](O[C@@H]6O[C@H](CO)[C@H](O[C@@H]7O[C@H](CO)[C@@H](O)[C@H](O[C@@H]8OC[C@@H](O)[C@H](O)[C@H]8O)[C@H]7O[C@@H]7O[C@H](CO)[C@H](O)[C@H](O[C@@H]8O[C@H](CO)[C@@H](O)[C@H](O)[C@H]8O)[C@H]7O)[C@H](O)[C@H]6O)[C@H](O)C[C@]5(C)[C@H]4CC[C@]3(C)[C@H]1[C@@H]2C [Digitonin]
- CMC [5]: 0.09 mM

Compound: Tween-20
- mechanism of inhibition of Lp-PLA2 (Lp-PLA2 [1]; Lineweaver–Burk plots at different Tween-20 concentrations): competitive
- CMC [5]: 0.06 mM

Compound: C[C@H](CCC(=O)NCCC[N+](C)(C)CCCS(=O)(=O)[O-])[C@H]1CC[C@H]2[C@@H]3[C@H](O)C[C@@H]4C[C@H](O)CC[C@]4(C)[C@H]3C[C@H](O)[C@]12C [CHAPS, 3-[(3-Cholamidopropyl)dimethylammonio]-1-propanesulfonate]
- CMC [2]: 5 to 10 mM
- CMC [5]: 6 to 10 mM

Compound: Triton X-100
- CMC [5]: 0.3 mM
